According to BindingDB's records for doi:10.1016/j.ejmech.2019.02.074 (University of Hull, 2019):
Several values for one entry are separate records, joined by “and”; a condition that tells them apart may be missing. Equal entries are not always repeated.

Biological target: Transient receptor potential cation channel subfamily A member 1 (Homo sapiens, UniProt O75762)
Assay: Antagonist activity at human TRPA1 expressed in HEK293 cells assessed as inhibition of CA-induced increase in calcium influx incubated for 10 mins prior to CA addition by Fluo-4-AM dye based fluorescence assayy

Sequence of Transient receptor potential cation channel subfamily A member 1 (O75762 whole entry): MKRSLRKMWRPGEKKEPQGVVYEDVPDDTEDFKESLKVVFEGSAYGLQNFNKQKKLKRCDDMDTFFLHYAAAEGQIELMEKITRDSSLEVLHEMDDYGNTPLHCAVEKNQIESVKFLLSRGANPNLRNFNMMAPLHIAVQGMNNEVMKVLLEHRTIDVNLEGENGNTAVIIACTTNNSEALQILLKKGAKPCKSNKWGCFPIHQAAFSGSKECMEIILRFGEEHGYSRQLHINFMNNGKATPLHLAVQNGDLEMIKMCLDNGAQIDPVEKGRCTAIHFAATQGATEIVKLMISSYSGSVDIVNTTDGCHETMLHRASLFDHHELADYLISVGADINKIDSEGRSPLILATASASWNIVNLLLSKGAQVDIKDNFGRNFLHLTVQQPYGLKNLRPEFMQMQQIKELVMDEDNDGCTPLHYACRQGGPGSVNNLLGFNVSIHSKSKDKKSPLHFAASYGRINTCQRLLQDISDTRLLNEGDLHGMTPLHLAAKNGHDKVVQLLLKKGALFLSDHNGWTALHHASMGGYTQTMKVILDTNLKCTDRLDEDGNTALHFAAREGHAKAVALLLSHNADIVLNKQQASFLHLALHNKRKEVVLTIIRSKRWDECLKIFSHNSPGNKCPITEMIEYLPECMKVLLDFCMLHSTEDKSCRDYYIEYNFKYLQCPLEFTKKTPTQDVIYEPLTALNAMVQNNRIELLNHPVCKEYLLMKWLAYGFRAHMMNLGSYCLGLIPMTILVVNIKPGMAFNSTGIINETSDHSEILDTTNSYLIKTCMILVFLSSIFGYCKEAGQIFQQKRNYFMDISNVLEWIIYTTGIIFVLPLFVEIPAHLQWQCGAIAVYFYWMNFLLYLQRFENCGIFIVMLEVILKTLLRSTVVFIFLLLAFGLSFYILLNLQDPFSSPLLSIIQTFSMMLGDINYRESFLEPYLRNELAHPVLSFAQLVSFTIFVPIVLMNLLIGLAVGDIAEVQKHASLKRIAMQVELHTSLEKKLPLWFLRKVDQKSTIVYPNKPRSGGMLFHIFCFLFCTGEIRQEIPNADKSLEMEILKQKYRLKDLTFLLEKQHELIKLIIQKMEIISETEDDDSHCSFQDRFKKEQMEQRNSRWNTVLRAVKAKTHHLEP

Compound	IC50
CC(=Cc1ccc(Cl)cc1)C(C)N=O (configuration not stated) [4-(4-chlorophenyl)-3-methylbut-3-en-2-one oxime]	4.47 µM and 4.46 µM
O=C(/C=C/c1ccc(Br)cc1)Nc1ccccc1C(=O)O	10 µM
